Data on eight compounds can be found in patent US20250154144A1 (CHILDREN'S HOSPITAL MEDICAL CENTER, priority 2021, published 2025).

SMILES strings stand for the structures.

The subject of assay [1] is MOLM14 D835Y cells. The assay is described as follows: cells. The class given is cell-based. Particulars: Homo sapiens, MOLM-14, 48 h, 48 hours, Cell Titer Glo; read-out: MOLM14 D835Y IC50. In general terms: In ATP-based viability assays light output follows the ATP content of the culture.
Assay [2] deals with T1, FLT3 N841I (Homo sapiens, UniProt P36888, N841I).
T1 construct: purchased DiscoverX (KINOMEscan)
T1 sequence (P36888 27-993 N841I): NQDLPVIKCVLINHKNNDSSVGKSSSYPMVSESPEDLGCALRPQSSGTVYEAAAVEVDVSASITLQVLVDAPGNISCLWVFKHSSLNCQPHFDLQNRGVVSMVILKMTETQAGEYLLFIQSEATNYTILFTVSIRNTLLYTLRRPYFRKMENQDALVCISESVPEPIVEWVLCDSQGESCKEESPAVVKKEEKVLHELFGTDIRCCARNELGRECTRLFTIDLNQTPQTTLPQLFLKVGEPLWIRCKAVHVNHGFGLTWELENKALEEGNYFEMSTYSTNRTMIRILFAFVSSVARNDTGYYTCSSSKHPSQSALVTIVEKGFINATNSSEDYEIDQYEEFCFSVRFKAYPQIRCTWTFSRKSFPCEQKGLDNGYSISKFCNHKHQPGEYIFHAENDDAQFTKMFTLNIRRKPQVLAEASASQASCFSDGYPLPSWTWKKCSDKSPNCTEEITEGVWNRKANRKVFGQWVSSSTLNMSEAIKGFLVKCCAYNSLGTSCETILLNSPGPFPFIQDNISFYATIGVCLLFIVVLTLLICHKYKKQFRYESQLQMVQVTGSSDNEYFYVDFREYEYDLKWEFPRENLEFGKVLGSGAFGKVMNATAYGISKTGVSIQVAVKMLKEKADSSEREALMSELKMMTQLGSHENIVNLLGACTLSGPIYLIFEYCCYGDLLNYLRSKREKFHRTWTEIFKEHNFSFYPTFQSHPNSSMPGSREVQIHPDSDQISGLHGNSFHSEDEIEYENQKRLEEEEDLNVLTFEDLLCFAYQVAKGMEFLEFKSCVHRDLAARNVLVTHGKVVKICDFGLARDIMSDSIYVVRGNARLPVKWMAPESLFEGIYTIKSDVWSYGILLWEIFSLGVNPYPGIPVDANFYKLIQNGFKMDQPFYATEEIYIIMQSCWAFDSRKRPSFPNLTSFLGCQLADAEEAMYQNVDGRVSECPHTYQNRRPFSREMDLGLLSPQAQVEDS
The assay is described as follows: DiscoverX KINOMEscan competition binding, FLT3 N841I.

In assay [3] the target is T2, FLT3 ITD (Homo sapiens, UniProt P36888).
T2 sequence (P36888 1-993): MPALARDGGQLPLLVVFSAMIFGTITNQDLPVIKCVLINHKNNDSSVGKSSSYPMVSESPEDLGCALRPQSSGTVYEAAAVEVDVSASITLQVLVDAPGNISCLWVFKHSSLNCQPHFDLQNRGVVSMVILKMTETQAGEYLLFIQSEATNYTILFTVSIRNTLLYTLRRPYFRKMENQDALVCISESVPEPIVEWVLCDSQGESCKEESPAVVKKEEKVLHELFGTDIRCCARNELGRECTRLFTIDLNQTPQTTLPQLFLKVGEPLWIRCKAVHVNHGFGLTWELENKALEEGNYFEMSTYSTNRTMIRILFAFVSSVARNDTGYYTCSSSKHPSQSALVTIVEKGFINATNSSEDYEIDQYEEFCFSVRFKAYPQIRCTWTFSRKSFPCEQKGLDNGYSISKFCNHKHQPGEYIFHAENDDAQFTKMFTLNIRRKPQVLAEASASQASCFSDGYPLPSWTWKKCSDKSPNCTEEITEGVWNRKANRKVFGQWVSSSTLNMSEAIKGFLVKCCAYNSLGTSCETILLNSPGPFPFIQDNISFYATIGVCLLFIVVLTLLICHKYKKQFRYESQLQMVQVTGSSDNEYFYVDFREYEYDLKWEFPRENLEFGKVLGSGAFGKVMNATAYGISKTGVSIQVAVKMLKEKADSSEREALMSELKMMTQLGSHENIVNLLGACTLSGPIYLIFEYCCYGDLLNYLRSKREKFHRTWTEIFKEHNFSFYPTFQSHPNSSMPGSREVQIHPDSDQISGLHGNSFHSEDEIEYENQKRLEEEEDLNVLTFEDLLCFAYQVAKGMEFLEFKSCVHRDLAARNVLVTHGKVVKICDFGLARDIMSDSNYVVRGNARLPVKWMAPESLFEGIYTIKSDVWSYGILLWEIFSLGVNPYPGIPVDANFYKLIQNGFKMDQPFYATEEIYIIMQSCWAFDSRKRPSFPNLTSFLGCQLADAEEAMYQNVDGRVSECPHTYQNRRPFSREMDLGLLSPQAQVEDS
The assay is described as follows: DiscoverX KINOMEscan competition binding, FLT3 ITD. The settings on record: read-out: FLT3 ITD Kd.

The IC50 is the concentration that inhibits the measured activity by half. The Kd is the equilibrium constant for the complex coming apart. Take `CC(O)(c1cn2c(-c3ccnc(N[C@H]4CNCC[C@@H]4F)n3)cnc2cn1)C(F)(F)F` (single isomer, unassigned) [Compound 72]: in assay [1], the IC50 stood at 55 nM. Moreover, the Kd in assay [2] came to 7.4 nM; in assay [3] it was 0.62 nM.
The corresponding values for `F[C@H]1CCNC[C@@H]1Nc1cncc(-c2cnc3cc(OC4CC4)ccn23)n1` [Compound 12, 6-(7-cyclopropoxyimidazo[1,2-a]pyridin-3-yl)-N-((3S,4S)-4-fluoropiperidin-3-yl)pyrazin-2-amine] are 34 nM, 4.7 nM and 0.87 nM.
As for `COc1cc2ncc(-c3cncc(N[C@H]4CNC[C@@H]4F)n3)n2nc1C1CC1` [Compound 22, 6-(6-cyclopropyl-7-methoxyimidazo[1,2-b]pyridazin-3-yl)-N-((3S,4S)-4-fluoropyrrolidin-3-yl)pyrazin-2-amine], the values for the Kd in assay [2] and in assay [3] were 5.6 nM and 0.67 nM, respectively.
On the same counts, the results for `COc1cc2ncc(-c3cncc(N[C@H]4CNCC[C@@H]4F)n3)n2nc1C1CC1` [Compound 24, 6-(6-cyclopropyl-7-methoxyimidazo[1,2-b]pyridazin-3-yl)-N-((3S,4S)-4-fluoropiperidin-3-yl)pyrazin-2-amine] are 0.51 nM and 0.97 nM.
In the case of `COc1cc2ncc(-c3ccnc(N[C@@H]4CCCNC4)n3)n2cc1C(C)(C)O` [Compound 44, (R)-2-(7-methoxy-3-(2-(piperidin-3-ylamino)pyrimidin-4-yl)imidazo[1,2-a]pyridin-6-yl)propan-2-ol], in assay [1], the IC50 turned out to be 11 nM. Further, the equilibrium dissociation constant (Kd) worked out at 0.97 nM in assay [2] and 0.42 nM in assay [3].
On the same counts, the results for `COc1cc2ncc(-c3ccnc(N[C@H]4CNC[C@@H]4F)n3)n2nc1C1CC1` [Compound 49, 4-(6-cyclopropyl-7-methoxyimidazo[1,2-b]pyridazin-3-yl)-N-((3S,4S)-4-fluoropyrrolidin-3-yl)pyrimidin-2-amine] are 24 nM, 0.61 nM and 0.59 nM.
In the case of `COc1cc2ncc(-c3ccnc(N[C@@H]4CCCNC4)n3)n2nc1C1CC1` [Compound 50, (R)-4-(6-cyclopropyl-7-methoxyimidazo[1,2-b]pyridazin-3-yl)-N-(piperidin-3-yl)pyrimidin-2-amine], the concentration for half-maximal inhibition (IC50) in assay [1] is 17 nM.
In the case of `COc1cc2ncc(-c3ccnc(N[C@H]4CNCC[C@@H]4F)n3)n2nc1C1CC1` [Compound 51, 4-(6-cyclopropyl-7-methoxyimidazo[1,2-b]pyridazin-3-yl)-N-((3S,4S)-4-fluoropiperidin-3-yl)pyrimidin-2-amine], the IC50 in assay [1] stood at 6 nM. Also, the Kd in assay [2] was 0.62 nM; in assay [3] it was 2 nM.
